Results published in article PMC8333062, “Chemical tools for epichaperome-mediated interactome dysfunctions of the central nervous system” (Nature Communications, 2021).

How the values were obtained:
Assay in all cases: scanEDGE off-target screen
Type in all cases: binding
[1] = target: T1, 97 kinases (Homo sapiens, UniProt O14965); conditions: read-out: %Ctrl AURKA
T1 construct: purchased Ambit Biosciences (scanEDGE / KINOMEscan) scanEDGE 97 kinase panel; host or cells: T7 phage in E. coli BL21-derived host; remaining kinases in HEK-293 cells

[2] = target: T2, 97 kinases (Homo sapiens, UniProt O96013); conditions: read-out: %Ctrl PAK4
T2 construct: purchased Ambit Biosciences (scanEDGE / KINOMEscan) scanEDGE 97 kinase panel; host or cells: T7 phage in E. coli BL21-derived host; remaining kinases in HEK-293 cells

[3] = target: T3, 97 kinases (Homo sapiens, UniProt P07333); conditions: read-out: %Ctrl CSF1R
T3 construct: purchased Ambit Biosciences (scanEDGE / KINOMEscan) scanEDGE 97 kinase panel; host or cells: T7 phage in E. coli BL21-derived host; remaining kinases in HEK-293 cells

[4] = target: T4, 97 kinases (Homo sapiens, UniProt P08581); conditions: read-out: %Ctrl MET
T4 construct: purchased Ambit Biosciences (scanEDGE / KINOMEscan) scanEDGE 97 kinase panel; host or cells: T7 phage in E. coli BL21-derived host; remaining kinases in HEK-293 cells

[5] = target: T5, 97 kinases (Homo sapiens, UniProt P11309); conditions: read-out: %Ctrl PIM1
T5 construct: purchased Ambit Biosciences (scanEDGE / KINOMEscan) scanEDGE 97 kinase panel; host or cells: T7 phage in E. coli BL21-derived host; remaining kinases in HEK-293 cells
T5 sequence (P11309 whole entry): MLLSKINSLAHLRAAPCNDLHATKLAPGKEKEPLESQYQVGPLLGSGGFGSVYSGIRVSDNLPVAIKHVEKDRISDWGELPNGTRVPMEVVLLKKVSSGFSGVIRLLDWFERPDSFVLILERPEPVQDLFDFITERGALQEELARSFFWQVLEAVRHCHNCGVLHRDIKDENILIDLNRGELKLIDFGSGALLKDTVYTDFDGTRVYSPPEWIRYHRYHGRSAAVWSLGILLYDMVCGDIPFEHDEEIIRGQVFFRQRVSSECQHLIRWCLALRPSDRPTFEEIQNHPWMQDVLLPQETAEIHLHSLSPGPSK

[6] = target: T6, 97 kinases (Homo sapiens, UniProt P15056, V600E); conditions: read-out: %Ctrl BRAF(V600E)
T6 construct: purchased Ambit Biosciences (scanEDGE / KINOMEscan) scanEDGE 97 kinase panel; host or cells: T7 phage in E. coli BL21-derived host; remaining kinases in HEK-293 cells

[7] = target: T7, 97 kinases (Homo sapiens, UniProt P16234); conditions: read-out: %Ctrl PDGFRA
T7 construct: purchased Ambit Biosciences (scanEDGE / KINOMEscan) scanEDGE 97 kinase panel; host or cells: T7 phage in E. coli BL21-derived host; remaining kinases in HEK-293 cells
T7 sequence (P16234 24-1089): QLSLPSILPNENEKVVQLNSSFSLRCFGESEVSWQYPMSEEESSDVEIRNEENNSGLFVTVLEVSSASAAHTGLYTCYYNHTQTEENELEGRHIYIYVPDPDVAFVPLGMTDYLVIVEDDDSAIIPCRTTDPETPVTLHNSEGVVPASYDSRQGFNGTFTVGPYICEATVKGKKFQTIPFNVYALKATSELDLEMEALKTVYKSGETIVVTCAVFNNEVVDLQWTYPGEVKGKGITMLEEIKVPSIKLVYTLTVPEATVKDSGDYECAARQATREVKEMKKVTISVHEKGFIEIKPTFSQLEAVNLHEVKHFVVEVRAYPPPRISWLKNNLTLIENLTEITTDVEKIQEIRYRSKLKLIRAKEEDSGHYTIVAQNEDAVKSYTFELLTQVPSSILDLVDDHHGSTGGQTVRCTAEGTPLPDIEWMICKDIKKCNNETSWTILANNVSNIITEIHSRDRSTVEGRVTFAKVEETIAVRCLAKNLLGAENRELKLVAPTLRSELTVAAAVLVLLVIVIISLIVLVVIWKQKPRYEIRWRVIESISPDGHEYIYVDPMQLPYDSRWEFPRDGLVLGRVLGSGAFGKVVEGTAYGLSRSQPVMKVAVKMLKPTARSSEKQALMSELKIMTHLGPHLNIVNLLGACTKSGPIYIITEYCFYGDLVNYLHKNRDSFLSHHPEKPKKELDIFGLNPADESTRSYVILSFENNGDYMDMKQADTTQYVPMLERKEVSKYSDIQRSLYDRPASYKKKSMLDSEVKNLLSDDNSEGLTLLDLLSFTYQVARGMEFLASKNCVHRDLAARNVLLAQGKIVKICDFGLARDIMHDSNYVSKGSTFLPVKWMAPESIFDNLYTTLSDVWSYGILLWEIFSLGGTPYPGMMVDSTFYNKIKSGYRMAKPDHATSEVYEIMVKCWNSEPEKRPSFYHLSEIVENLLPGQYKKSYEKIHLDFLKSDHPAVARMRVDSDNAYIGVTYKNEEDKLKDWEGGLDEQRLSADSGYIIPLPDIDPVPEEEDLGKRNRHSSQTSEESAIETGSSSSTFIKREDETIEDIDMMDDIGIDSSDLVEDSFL

[8] = target: T8, 97 kinases (Homo sapiens, UniProt P27361); conditions: read-out: %Ctrl ERK1
T8 construct: purchased Ambit Biosciences (scanEDGE / KINOMEscan) scanEDGE 97 kinase panel; host or cells: T7 phage in E. coli BL21-derived host; remaining kinases in HEK-293 cells

[9] = target: T9, 97 kinases (Homo sapiens, UniProt P35968); conditions: read-out: %Ctrl VEGFR2
T9 construct: purchased Ambit Biosciences (scanEDGE / KINOMEscan) scanEDGE 97 kinase panel; host or cells: T7 phage in E. coli BL21-derived host; remaining kinases in HEK-293 cells

[10] = target: T10, 97 kinases (Homo sapiens, UniProt P36507); conditions: read-out: %Ctrl MEK2
T10 construct: purchased Ambit Biosciences (scanEDGE / KINOMEscan) scanEDGE 97 kinase panel; host or cells: T7 phage in E. coli BL21-derived host; remaining kinases in HEK-293 cells

[11] = target: T11, 97 kinases (Homo sapiens, UniProt P36896); conditions: read-out: %Ctrl ACVR1B
T11 construct: purchased Ambit Biosciences (scanEDGE / KINOMEscan) scanEDGE 97 kinase panel; host or cells: T7 phage in E. coli BL21-derived host; remaining kinases in HEK-293 cells
T11 sequence (P36896 24-505): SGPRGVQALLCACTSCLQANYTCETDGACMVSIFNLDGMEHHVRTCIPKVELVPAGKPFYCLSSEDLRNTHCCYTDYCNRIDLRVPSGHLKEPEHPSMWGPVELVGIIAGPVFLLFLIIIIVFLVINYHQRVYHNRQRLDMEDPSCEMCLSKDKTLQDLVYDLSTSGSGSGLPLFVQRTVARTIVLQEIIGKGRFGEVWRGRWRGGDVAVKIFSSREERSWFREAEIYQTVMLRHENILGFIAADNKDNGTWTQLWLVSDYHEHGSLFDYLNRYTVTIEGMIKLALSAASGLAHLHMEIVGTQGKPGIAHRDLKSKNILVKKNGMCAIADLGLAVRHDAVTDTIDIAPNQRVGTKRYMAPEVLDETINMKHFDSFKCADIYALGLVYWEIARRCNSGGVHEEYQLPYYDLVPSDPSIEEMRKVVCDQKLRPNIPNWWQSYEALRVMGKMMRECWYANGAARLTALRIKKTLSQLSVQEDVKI

[12] = target: T12, 97 kinases (Homo sapiens, UniProt P36897); conditions: read-out: %Ctrl TGFBR1
T12 construct: purchased Ambit Biosciences (scanEDGE / KINOMEscan) scanEDGE 97 kinase panel; host or cells: T7 phage in E. coli BL21-derived host; remaining kinases in HEK-293 cells
T12 sequence (P36897 34-503): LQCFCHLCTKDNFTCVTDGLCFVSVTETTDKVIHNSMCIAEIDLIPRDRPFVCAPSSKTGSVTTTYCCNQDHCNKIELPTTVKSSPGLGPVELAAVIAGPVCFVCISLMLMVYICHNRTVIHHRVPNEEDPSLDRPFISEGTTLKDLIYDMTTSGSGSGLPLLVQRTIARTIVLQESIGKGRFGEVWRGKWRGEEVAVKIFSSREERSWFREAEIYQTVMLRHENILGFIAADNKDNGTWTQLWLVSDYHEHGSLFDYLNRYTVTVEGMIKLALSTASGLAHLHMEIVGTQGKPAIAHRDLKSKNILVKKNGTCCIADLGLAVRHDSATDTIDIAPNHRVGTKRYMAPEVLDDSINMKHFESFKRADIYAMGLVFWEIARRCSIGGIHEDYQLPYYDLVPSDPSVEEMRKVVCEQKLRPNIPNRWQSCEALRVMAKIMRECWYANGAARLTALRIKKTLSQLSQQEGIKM

[13] = target: T13, 97 kinases (Homo sapiens, UniProt P45983); conditions: read-out: %Ctrl JNK1
T13 construct: purchased Ambit Biosciences (scanEDGE / KINOMEscan) scanEDGE 97 kinase panel; host or cells: T7 phage in E. coli BL21-derived host; remaining kinases in HEK-293 cells

[14] = target: T14, 97 kinases (Homo sapiens, UniProt P45984); conditions: read-out: %Ctrl JNK2
T14 construct: purchased Ambit Biosciences (scanEDGE / KINOMEscan) scanEDGE 97 kinase panel; host or cells: T7 phage in E. coli BL21-derived host; remaining kinases in HEK-293 cells
T14 sequence (P45984 whole entry): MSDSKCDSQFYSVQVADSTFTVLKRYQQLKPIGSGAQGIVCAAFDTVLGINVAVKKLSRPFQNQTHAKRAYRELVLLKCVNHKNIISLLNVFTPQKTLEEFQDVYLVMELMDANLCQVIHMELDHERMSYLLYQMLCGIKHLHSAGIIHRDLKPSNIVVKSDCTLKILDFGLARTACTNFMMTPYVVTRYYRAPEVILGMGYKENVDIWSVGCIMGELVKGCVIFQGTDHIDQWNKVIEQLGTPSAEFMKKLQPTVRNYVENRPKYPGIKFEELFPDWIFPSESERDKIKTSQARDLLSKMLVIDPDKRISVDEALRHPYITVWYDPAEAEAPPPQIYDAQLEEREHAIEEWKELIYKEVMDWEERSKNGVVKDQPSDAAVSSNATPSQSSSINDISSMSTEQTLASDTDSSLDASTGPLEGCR

[15] = target: T15, 97 kinases (Homo sapiens, UniProt P48730); conditions: read-out: %Ctrl CSNK1D
T15 construct: purchased Ambit Biosciences (scanEDGE / KINOMEscan) scanEDGE 97 kinase panel; host or cells: T7 phage in E. coli BL21-derived host; remaining kinases in HEK-293 cells

[16] = target: T16, 97 kinases (Homo sapiens, UniProt P50750); conditions: read-out: %Ctrl CDK9
T16 construct: purchased Ambit Biosciences (scanEDGE / KINOMEscan) scanEDGE 97 kinase panel; host or cells: T7 phage in E. coli BL21-derived host; remaining kinases in HEK-293 cells

[17] = target: T17, 97 kinases (Homo sapiens, UniProt P51812); conditions: read-out: %Ctrl RSK2(Kin.Dom.1-N-terminal)
T17 construct: purchased Ambit Biosciences (scanEDGE / KINOMEscan) scanEDGE 97 kinase panel; host or cells: T7 phage in E. coli BL21-derived host; remaining kinases in HEK-293 cells

[18] = target: T18, 97 kinases (Homo sapiens, UniProt P52333); conditions: read-out: %Ctrl JAK3(JH1domain-catalytic)
T18 construct: purchased Ambit Biosciences (scanEDGE / KINOMEscan) scanEDGE 97 kinase panel; host or cells: T7 phage in E. coli BL21-derived host; remaining kinases in HEK-293 cells

[19] = target: T19, 97 kinases (Homo sapiens, UniProt P78368); conditions: read-out: %Ctrl CSNK1G2
T19 construct: purchased Ambit Biosciences (scanEDGE / KINOMEscan) scanEDGE 97 kinase panel; host or cells: T7 phage in E. coli BL21-derived host; remaining kinases in HEK-293 cells
T19 sequence (P78368 whole entry): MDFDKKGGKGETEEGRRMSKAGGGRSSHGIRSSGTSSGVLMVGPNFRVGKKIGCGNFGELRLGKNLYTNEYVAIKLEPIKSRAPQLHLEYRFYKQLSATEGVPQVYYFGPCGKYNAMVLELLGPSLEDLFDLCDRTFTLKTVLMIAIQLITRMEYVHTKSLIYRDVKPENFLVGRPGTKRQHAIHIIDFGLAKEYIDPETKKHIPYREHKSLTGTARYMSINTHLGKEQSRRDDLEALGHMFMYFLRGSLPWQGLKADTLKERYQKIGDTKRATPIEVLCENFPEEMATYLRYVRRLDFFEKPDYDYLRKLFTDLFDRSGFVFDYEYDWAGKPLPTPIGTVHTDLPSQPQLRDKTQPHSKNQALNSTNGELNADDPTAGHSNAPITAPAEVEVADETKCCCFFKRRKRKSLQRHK

[20] = target: T20, 97 kinases (Homo sapiens, UniProt Q00526); conditions: read-out: %Ctrl CDK3
T20 construct: purchased Ambit Biosciences (scanEDGE / KINOMEscan) scanEDGE 97 kinase panel; host or cells: T7 phage in E. coli BL21-derived host; remaining kinases in HEK-293 cells

[21] = target: T21, 97 kinases (Homo sapiens, UniProt Q02156); conditions: read-out: %Ctrl PRKCE
T21 construct: purchased Ambit Biosciences (scanEDGE / KINOMEscan) scanEDGE 97 kinase panel; host or cells: T7 phage in E. coli BL21-derived host; remaining kinases in HEK-293 cells

[22] = target: T22, 97 kinases (Homo sapiens, UniProt Q02750); conditions: read-out: %Ctrl MEK1
T22 construct: purchased Ambit Biosciences (scanEDGE / KINOMEscan) scanEDGE 97 kinase panel; host or cells: T7 phage in E. coli BL21-derived host; remaining kinases in HEK-293 cells
T22 sequence (Q02750 whole entry): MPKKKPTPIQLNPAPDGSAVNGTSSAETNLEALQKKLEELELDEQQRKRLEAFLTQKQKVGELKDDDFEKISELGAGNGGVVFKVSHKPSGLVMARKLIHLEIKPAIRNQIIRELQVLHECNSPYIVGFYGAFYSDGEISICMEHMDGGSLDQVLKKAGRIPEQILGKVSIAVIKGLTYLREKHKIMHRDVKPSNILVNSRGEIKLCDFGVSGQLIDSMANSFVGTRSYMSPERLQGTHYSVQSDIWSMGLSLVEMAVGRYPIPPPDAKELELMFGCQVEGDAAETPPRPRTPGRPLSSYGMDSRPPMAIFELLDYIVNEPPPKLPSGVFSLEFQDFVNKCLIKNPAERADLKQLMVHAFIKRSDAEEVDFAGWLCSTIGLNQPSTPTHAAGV

[23] = target: T23, 97 kinases (Homo sapiens, UniProt Q02763); conditions: read-out: %Ctrl TIE2
T23 construct: purchased Ambit Biosciences (scanEDGE / KINOMEscan) scanEDGE 97 kinase panel; host or cells: T7 phage in E. coli BL21-derived host; remaining kinases in HEK-293 cells

[24] = target: T24, 97 kinases (Homo sapiens, UniProt Q06187); conditions: read-out: %Ctrl BTK
T24 construct: purchased Ambit Biosciences (scanEDGE / KINOMEscan) scanEDGE 97 kinase panel; host or cells: T7 phage in E. coli BL21-derived host; remaining kinases in HEK-293 cells

[25] = target: T25, 97 kinases (Homo sapiens, UniProt Q13153); conditions: read-out: %Ctrl PAK1
T25 construct: purchased Ambit Biosciences (scanEDGE / KINOMEscan) scanEDGE 97 kinase panel; host or cells: T7 phage in E. coli BL21-derived host; remaining kinases in HEK-293 cells

[26] = target: T26, 97 kinases (Homo sapiens, UniProt Q13177); conditions: read-out: %Ctrl PAK2
T26 construct: purchased Ambit Biosciences (scanEDGE / KINOMEscan) scanEDGE 97 kinase panel; host or cells: T7 phage in E. coli BL21-derived host; remaining kinases in HEK-293 cells

[27] = target: T27, 97 kinases (Homo sapiens, UniProt Q15303); conditions: read-out: %Ctrl ERBB4
T27 construct: purchased Ambit Biosciences (scanEDGE / KINOMEscan) scanEDGE 97 kinase panel; host or cells: T7 phage in E. coli BL21-derived host; remaining kinases in HEK-293 cells

[28] = target: T28, 97 kinases (Homo sapiens, UniProt Q15759); conditions: read-out: %Ctrl p38-beta
T28 construct: purchased Ambit Biosciences (scanEDGE / KINOMEscan) scanEDGE 97 kinase panel; host or cells: T7 phage in E. coli BL21-derived host; remaining kinases in HEK-293 cells
T28 sequence (Q15759 whole entry): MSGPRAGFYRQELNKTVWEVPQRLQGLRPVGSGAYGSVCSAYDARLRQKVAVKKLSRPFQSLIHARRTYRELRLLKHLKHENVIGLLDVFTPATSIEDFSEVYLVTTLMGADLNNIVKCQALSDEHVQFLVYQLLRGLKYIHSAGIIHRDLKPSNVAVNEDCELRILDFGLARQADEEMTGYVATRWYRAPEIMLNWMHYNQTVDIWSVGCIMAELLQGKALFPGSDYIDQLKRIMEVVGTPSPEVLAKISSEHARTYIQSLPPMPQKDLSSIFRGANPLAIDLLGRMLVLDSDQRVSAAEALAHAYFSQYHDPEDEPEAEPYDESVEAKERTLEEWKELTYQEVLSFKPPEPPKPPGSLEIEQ

[29] = target: T29, 97 kinases (Homo sapiens, UniProt Q16539); conditions: read-out: %Ctrl p38-alpha
T29 construct: purchased Ambit Biosciences (scanEDGE / KINOMEscan) scanEDGE 97 kinase panel; host or cells: T7 phage in E. coli BL21-derived host; remaining kinases in HEK-293 cells

[30] = target: T30, 97 kinases (Homo sapiens, UniProt Q86UX6); conditions: read-out: %Ctrl YANK3
T30 construct: purchased Ambit Biosciences (scanEDGE / KINOMEscan) scanEDGE 97 kinase panel; host or cells: T7 phage in E. coli BL21-derived host; remaining kinases in HEK-293 cells

[31] = target: T31, 97 kinases (Homo sapiens, UniProt Q86V86); conditions: read-out: %Ctrl PIM3
T31 construct: purchased Ambit Biosciences (scanEDGE / KINOMEscan) scanEDGE 97 kinase panel; host or cells: T7 phage in E. coli BL21-derived host; remaining kinases in HEK-293 cells

[32] = target: T32, 97 kinases (Homo sapiens, UniProt Q8IYT8); conditions: read-out: %Ctrl ULK2
T32 construct: purchased Ambit Biosciences (scanEDGE / KINOMEscan) scanEDGE 97 kinase panel; host or cells: T7 phage in E. coli BL21-derived host; remaining kinases in HEK-293 cells

[33] = target: T33, 97 kinases (Homo sapiens, UniProt Q8NI60); conditions: read-out: %Ctrl ADCK3
T33 construct: purchased Ambit Biosciences (scanEDGE / KINOMEscan) scanEDGE 97 kinase panel; host or cells: T7 phage in E. coli BL21-derived host; remaining kinases in HEK-293 cells

[34] = target: T34, 97 kinases (Homo sapiens, UniProt Q96GD4); conditions: read-out: %Ctrl AURKB
T34 construct: purchased Ambit Biosciences (scanEDGE / KINOMEscan) scanEDGE 97 kinase panel; host or cells: T7 phage in E. coli BL21-derived host; remaining kinases in HEK-293 cells
T34 sequence (Q96GD4 whole entry): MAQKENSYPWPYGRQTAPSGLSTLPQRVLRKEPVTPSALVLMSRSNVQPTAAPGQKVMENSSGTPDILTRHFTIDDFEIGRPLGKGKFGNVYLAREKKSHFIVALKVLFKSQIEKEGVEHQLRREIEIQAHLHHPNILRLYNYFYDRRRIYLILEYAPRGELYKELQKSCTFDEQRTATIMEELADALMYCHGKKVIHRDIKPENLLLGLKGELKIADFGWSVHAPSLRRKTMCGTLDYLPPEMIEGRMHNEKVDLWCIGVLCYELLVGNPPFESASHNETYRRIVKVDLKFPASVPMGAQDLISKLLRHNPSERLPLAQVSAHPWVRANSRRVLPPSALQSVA

[35] = target: T35, 97 kinases (Homo sapiens, UniProt Q9BUB5); conditions: read-out: %Ctrl MKNK1
T35 construct: purchased Ambit Biosciences (scanEDGE / KINOMEscan) scanEDGE 97 kinase panel; host or cells: T7 phage in E. coli BL21-derived host; remaining kinases in HEK-293 cells

[36] = target: T36, 97 kinases (Homo sapiens, UniProt Q9H093); conditions: read-out: %Ctrl SNARK
T36 construct: purchased Ambit Biosciences (scanEDGE / KINOMEscan) scanEDGE 97 kinase panel; host or cells: T7 phage in E. coli BL21-derived host; remaining kinases in HEK-293 cells

[37] = target: T37, 97 kinases (Homo sapiens, UniProt Q9HBH9); conditions: read-out: %Ctrl MKNK2
T37 construct: purchased Ambit Biosciences (scanEDGE / KINOMEscan) scanEDGE 97 kinase panel; host or cells: T7 phage in E. coli BL21-derived host; remaining kinases in HEK-293 cells
T37 sequence (Q9HBH9 whole entry): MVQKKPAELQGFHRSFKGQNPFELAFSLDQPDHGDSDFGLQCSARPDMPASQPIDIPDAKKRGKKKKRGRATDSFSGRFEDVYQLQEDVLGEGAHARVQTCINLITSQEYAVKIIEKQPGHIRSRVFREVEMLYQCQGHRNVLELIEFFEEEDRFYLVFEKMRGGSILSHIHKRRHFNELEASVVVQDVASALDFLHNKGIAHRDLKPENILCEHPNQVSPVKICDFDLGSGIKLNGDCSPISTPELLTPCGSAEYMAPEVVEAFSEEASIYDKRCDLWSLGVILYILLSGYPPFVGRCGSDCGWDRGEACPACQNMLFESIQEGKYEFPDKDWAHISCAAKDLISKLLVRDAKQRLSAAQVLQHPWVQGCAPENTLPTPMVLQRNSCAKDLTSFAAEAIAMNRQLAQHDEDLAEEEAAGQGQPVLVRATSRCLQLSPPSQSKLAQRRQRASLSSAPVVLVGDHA

[38] = target: T38, 97 kinases (Homo sapiens, UniProt Q9UPE1); conditions: read-out: %Ctrl SRPK3
T38 construct: purchased Ambit Biosciences (scanEDGE / KINOMEscan) scanEDGE 97 kinase panel; host or cells: T7 phage in E. coli BL21-derived host; remaining kinases in HEK-293 cells

## CC(C)(C)CNCCn1c(Sc2cc3c(cc2I)OCO3)nc2c(N)ncnc21 [Compound 85]
[1]
  remaining binding at 10 µM: 96%
[2]
  remaining binding at 10 µM: 100%
[3]
  remaining binding at 10 µM: 94%
[4]
  remaining binding at 10 µM: 100%
[5]
  remaining binding at 10 µM: 79%
[6]
  remaining binding at 10 µM: 97%
[7]
  remaining binding at 10 µM: 100%
[8]
  remaining binding at 10 µM: 100%
[9]
  remaining binding at 10 µM: 98%
[10]
  remaining binding at 10 µM: 76%
[11]
  remaining binding at 10 µM: 83%
[12]
  remaining binding at 10 µM: 63%
[13]
  remaining binding at 10 µM: 96%
[14]
  remaining binding at 10 µM: 93%
[15]
  remaining binding at 10 µM: 91%
[16]
  remaining binding at 10 µM: 91%
[17]
  remaining binding at 10 µM: 84%
[18]
  remaining binding at 10 µM: 86%
[19]
  remaining binding at 10 µM: 100%
[20]
  remaining binding at 10 µM: 100%
[21]
  remaining binding at 10 µM: 100%
[22]
  remaining binding at 10 µM: 99%
[23]
  remaining binding at 10 µM: 100%
[24]
  remaining binding at 10 µM: 100%
[25]
  remaining binding at 10 µM: 92%
[26]
  remaining binding at 10 µM: 97%
[27]
  remaining binding at 10 µM: 100%
[28]
  remaining binding at 10 µM: 89%
[29]
  remaining binding at 10 µM: 100%
[30]
  remaining binding at 10 µM: 95%
[31]
  remaining binding at 10 µM: 91%
[32]
  remaining binding at 10 µM: 94%
[33]
  remaining binding at 10 µM: 92%
[34]
  remaining binding at 10 µM: 73%
[35]
  remaining binding at 10 µM: 100%
[36]
  remaining binding at 10 µM: 100%
[37]
  remaining binding at 10 µM: 93%
[38]
  remaining binding at 10 µM: 100%
